Test results taken from ChEMBL document CHEMBL1145522, “Recognition of trimethyllysine by a chromodomain is not driven by the hydrophobic effect” (Proc Natl Acad Sci U S A, 2007).

Experiment: Binding affinity to Drosophila HP1 chromodomain by fluorescence polarization assay

- Kd: > 1000 µM
SMILES: C[C@H](N)C(=O)N[C@@H](CCCNC(=N)N)C(=O)N[C@H](C(=O)N[C@@H](CCCCN)C(=O)N[C@@H](CCC(N)=O)C(=O)N[C@H](C(=O)N[C@@H](C)C(=O)N[C@@H](CCCNC(=N)N)C(=O)N[C@@H](CCCCN)C(=O)N[C@@H](CO)C(=O)N[C@H](C(=O)NCC(=O)NCC(=O)N[C@@H](CCCCN)C(=O)N[C@@H](C)C(=O)N[C@@H](Cc1ccc(O)cc1)C(=O)O)[C@@H](C)O)[C@@H](C)O)[C@@H](C)O
